The source of these data is patent publication US8580977B2 (priority 2010, dated 2013).

As a reminder, the IC50 is the concentration that gives 50% inhibition.

In series [1] the test system is PP2A. The note with it: literature; cited from earlier work.
For series [2], the system named is PP1. The note with it: literature; cited from earlier work.
Series [3] relates to Du145, MCF7, and HCT-115. Briefly: cytotoxicity against selected human cancer cell lines. It is filed as cell-based. The settings on record: Du145, MCF7, HCT-115. On the procedure:
(§1) IR spectra were measured on a Bruker EQUINOX 55/S FT-IR/NIR spectrophotometer (Ettlingen, DE). Optical rotations were determined on a Perkin-Elmer 241 instrument at the sodium D line (589 nm). High-resolution mass spectrometry (HRMS) analyses were acquired on an IonSpec HiRes MALDI FT mass spectrometer (Lake Forest, Calif.) for […] or on an Agilent 1100 series LC/MSD Trap SL for HRESIMS (Santa Clara, Calif.). NMR data were recorded on a Varian Unity Inova 400 or 500 MHz NMR spectrometer (Varian, Inc., Palo Alto, Calif.). ^1H and ^13C NMR chemical shifts were referenced to residual solvent signals: δH 7.26 ppm and […] for CDCl3. ^1H-^1H COSY, HMQC, HMBC, HETLOC, gHSQMBC, and gDQCOSY were performed using either standard Varian pulse sequences or literature pulse sequences (Uhrin et al., 1998; Williamson et al., 2000). High-performance liquid chromatography (HPLC) analysis was carried out on a Varian HPLC system equipped with ProStar 210 pumps and a photodiode detector. Mobile phases used were buffer A (H2O) and buffer B (CH3CN). Analytical and semipreparative HPLC columns used were Alltech Alltima C18 columns, 250×4.6 mm, 5 μm and 250×10 mm, 5 respectively. Cytotoxity assays and PP inhibition assays for TTN and related analogues were performed as previously described for compound TTM and related congeners (Ju et al., 2009). Medium components and all other chemical solvents and reagents were purchased from Fisher Scientific (Fairlawn, N.J.). Silica gel 60 RP-18 (230-400 mesh, EMD Chemical Inc., Gibbstown, N.J.) was used for standard benchtop column chromatography. Amberlite XAD-16 resin was purchased from Sigma.
Compounds 3-7 were subjected to PP inhibition and cytotoxicity assays with 1 as a control (Ju et al., 2009). Assays focused specifically on the inhibition of PP-1 and PP-2A (Table 4), while cytotoxicity assays exploited the use of selected human cancer cell lines Du145, MCF7, and HCT-115 (Table 5). […]

The subject of series [4] is PP-2A. Briefly: PP inhibition assay, PP-2A. It is filed as biochemical. The note with it: for IC50: read-out: in vitro inhibition (IC50) against PP-2A. On the procedure: as §1
(§2) Compounds 3-7 were subjected to PP inhibition and cytotoxicity assays with 1 as a control (Ju et al., 2009). Assays focused specifically on the inhibition of PP-1 and PP-2A (Table 4), while cytotoxicity assays exploited the use of selected human cancer cell lines Du145, MCF7, and HCT-115 (Table 5).

Series [5] concerns T1, PP-1.
T1 construct: other: less efficient / worse than TTN
Briefly: PP inhibition assay, PP-1. It is filed as biochemical. The note with it: for PP-1 inhibition relative to TTN: less efficient / worse than TTN; for IC50: read-out: in vitro inhibition (IC50) against PP-1. On the procedure:
as §1, §2

Series [6] is described as follows: in vitro cytotoxicity assay, HCT-115. The settings on record: HCT-115 cells; HCT-115 human cancer cell line. It is filed as cell-based. On the procedure:
as §1, with “Medium components and all other chemical solvents and reagents were purchased from Fisher Scientific (Fairlawn, N.J.). Silica gel 60 RP-18 (230-400 mesh, EMD Chemical Inc., Gibbstown, N.J.) was used for standard benchtop column chromatography. Amberlite XAD-16 resin was purchased from Sigma.” left out

Series [7] can be described thus: in vitro cytotoxicity assay, Du145. The format is cell-based. The settings on record: Du145 cells; Du145 human cancer cell line. On the procedure:
as §1, with “Medium components and all other chemical solvents and reagents were purchased from Fisher Scientific (Fairlawn, N.J.). Silica gel 60 RP-18 (230-400 mesh, EMD Chemical Inc., Gibbstown, N.J.) was used for standard benchtop column chromatography. Amberlite XAD-16 resin was purchased from Sigma.” left out

Series [8] can be described thus: in vitro cytotoxicity assay, MCF7. The settings on record: MCF7 cells; MCF7 human cancer cell line. It is filed as cell-based. Here is the method: as §1, with “Medium components and all other chemical solvents and reagents were purchased from Fisher Scientific (Fairlawn, N.J.). Silica gel 60 RP-18 (230-400 mesh, EMD Chemical Inc., Gibbstown, N.J.) was used for standard benchtop column chromatography. Amberlite XAD-16 resin was purchased from Sigma.” left out

The test system of series [9] is PP-1. The experiment in a line: PP inhibition assay, PP-1. The format is biochemical. The note with it: PP-1 over PP-2A. On the procedure: as §1, §2
The test system of series [10] is activated T cells. The settings on record: literature (Shim et al., 2002); cited from earlier work.

For the molecule `CO[C@H]([C@H](O)CC(=O)[C@@H](C)[C@@H](O)CC[C@@H](C)[C@@H]1O[C@]2(CC[C@@H](C)[C@H](CC[C@H](C)C(C)=O)O2)CC[C@@H]1C)[C@H](OC(=O)C[C@@H](O)C1=C(C)C(=O)OC1=O)C(C)C` [TTM, tautomycin], the 50% inhibitory concentration (IC50) in series [1] was 22 to 32 nM. For the same molecule, in series [2], the half-maximal inhibitory concentration (IC50) is 22 to 32 nM and the “preference for PP1 inhibition relative to PP2A” value was “slight preference for PP1”.
As to `CCC(/C=C/C(=O)O)=C\CC[C@H](C)C[C@@H](C)CC[C@H](O)[C@H](C)C(=O)C[C@@H](O)[C@H](C)[C@@H](C)OC(=O)C[C@@H](O)C1=C(C)C(=O)OC1=O` [TTN D-1 (4)], the “cytotoxicity (in words)” value in [3] is “inactive”. In addition, in series [4], the “PP-2A inhibition relative to TTN” value is reported as “about the same potency as TTN” and the IC50 came out at 520 ± 50 nM. Also, in [5], the “PP-1 inhibition relative to TTN” value is recorded as “approximately one order of magnitude” and the IC50 was determined as 130 ± 20 nM.
For the molecule `CCC(/C=C/C(=O)O)=C\C(O)C[C@H](C)C[C@@H](C)CC[C@H](O)[C@H](C)C(=O)C[C@@H](O)[C@H](C)[C@@H](C)OC(=O)C[C@@H](O)C1=C(C)C(=O)OC1=O` (stereo partly drawn) [TTN D-2 (5)], the “cytotoxicity (in words)” value in series [3] was “inactive”. Besides, in series [4], the “PP-2A inhibition relative to TTN” value was “about two orders of magnitude worse” and the concentration for half-maximal inhibition (IC50) stood at 44000 ± 100 nM. In series [5], the “PP-1 inhibition relative to TTN” value was “approximately three orders of magnitude worse” and the IC50 worked out at 9800 ± 100 nM.
With `CCC(C=CC(=O)O)=CC(O)CC(C)CC(C)CCC(O)C(C)C(=O)CC(O)C(C)C(C)OC(=O)CC(O)C1=C(C)C(=O)OC1=O` [TTN D-3 (6)], the IC50 in series [6] worked out at 16000 ± 3000 nM; in series [7] it was 14000 ± 3000 nM; in series [4], 800 ± 60 nM; in series [5], 210 ± 30 nM; in [8], 11000 ± 3000 nM. In addition, the “PP-2A inhibition relative to TTN” value in series [4] is “about the same potency as TTN”. In addition, in series [5], the “PP-1 inhibition relative to TTN” value was “approximately one order of magnitude”.
Turning to `CCC(C=CC(=O)O)=CC(=O)CC(C)CC(C)CCC(O)C(C)C(=O)CC(O)C(C)C(C)OC(=O)CC(O)C1=C(C)C(=O)OC1=O` [TTN D-4 (7)], the IC50 in series [6] is 18000 ± 3000 nM; in series [7], 13000 ± 4000 nM; in series [4], 920 ± 40 nM; in series [8] it was 17000 ± 3000 nM. The “PP-2A inhibition relative to TTN” value in [4] is listed as “about the same potency as TTN”. In series [5], the “PP-1 inhibition relative to TTN” value is given as “approximately one order of magnitude”.
Turning to `CC/C(=C\CC[C@H](C)C[C@@H](C)CC[C@H](O)[C@H](C)C(=O)C[C@@H](O)[C@H](C)[C@@H](C)OC(=O)C[C@@H](O)C1=C(C)C(=O)OC1=O)C(O)CC(=O)O` (stereo partly shown) [TTN F-1 (3)], in series [3], the “cytotoxicity (in words)” value is “inactive”. Also, in [4], the “PP-2A inhibition relative to TTN” value was “about the same potency as TTN” and the IC50 was 640 ± 80 nM. Besides, in series [5], the “PP-1 inhibition relative to TTN” value was “approximately one order of magnitude” and the half-inhibitory concentration (IC50) was 170 ± 10 nM.
Consider “Tautomycetin [TTN (1), reference compound]”, for which the IC50 in [1] is 62 nM; in series [4], 400 ± 40 nM; in [2] it was 1.6 nM; in [5], 15 ± 0.0008 nM. For the same molecule, the PP-1 selectivity result in series [9] is on record as “about 27 fold”. The “T cell proliferation inhibited at concentrations lower than those needed for maximal inhibition by cyclosporine A” value in [10] is 100 fold.
